Data published in the supplement of paper PMC10307832.

Key:
Assay in all cases: relative viability (nuclei count vs DMSO), 5 days (fraction); higher = more cells survive
Ispinesib + AZD7762 = compound: Cc1ccc(C(=O)N(CCCN)[C@@H](c2nc3cc(Cl)ccc3c(=O)n2Cc2ccccc2)C(C)C)cc1 [Ispinesib] + NC(=O)Nc1cc(-c2cccc(F)c2)sc1C(=O)N[C@H]1CCCNC1 [AZD7762] (partner 0.2 µM)
How it was run: (§1)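 Five library-drug doses in √10 steps were combined with a fixed anchor-drug dose, or a single drug was given alone, by pin tool to lung cancer cell lines in 1536-well plates the day after seeding. Nuclei were stained and counted after 5 days. Relative viability is the nuclei count in treated wells over that in vehicle wells, taken as the median of duplicate plates.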

Linsitinib + Pictilisib = compound: C[C@]1(O)C[C@@H](c2nc(-c3ccc4ccc(-c5ccccc5)nc4c3)c3c(N)nccn32)C1 [Linsitinib] + CS(=O)(=O)N1CCN(Cc2cc3nc(-c4cccc5[nH]ncc45)nc(N4CCOCC4)c3s2)CC1 [Pictilisib] (partner 1 µM)
How it was run: as §1

Ispinesib + Navitoclax = compound: Cc1ccc(C(=O)N(CCCN)[C@@H](c2nc3cc(Cl)ccc3c(=O)n2Cc2ccccc2)C(C)C)cc1 [Ispinesib] + CC1(C)CCC(c2ccc(Cl)cc2)=C(CN2CCN(c3ccc(C(=O)NS(=O)(=O)c4ccc(N[C@H](CCN5CCOCC5)CSc5ccccc5)c(S(=O)(=O)C(F)(F)F)c4)cc3)CC2)C1 [Navitoclax] (partner 0.5 µM)
How it was run: as §1

Ispinesib + Pemetrexed = compound: Cc1ccc(C(=O)N(CCCN)[C@@H](c2nc3cc(Cl)ccc3c(=O)n2Cc2ccccc2)C(C)C)cc1 [Ispinesib] + Nc1nc2[nH]cc(CCc3ccc(C(=O)N[C@@H](CCC(=O)O)C(=O)O)cc3)c2c(=O)[nH]1 [Pemetrexed] (partner 0.2 µM)
How it was run: as §1

Cell Line | relative viability (Ispinesib + AZD7762; first compound 0.001 µM) | relative viability (Ispinesib + AZD7762; first compound 0.003162 µM) | relative viability (Ispinesib + AZD7762; first compound 0.01 µM) | relative viability (Ispinesib + AZD7762; first compound 0.03162 µM) | relative viability (Ispinesib + AZD7762; first compound 0.1 µM) | relative viability (Linsitinib + Pictilisib; first compound 0.01 µM) | relative viability (Linsitinib + Pictilisib; first compound 0.03162 µM) | relative viability (Linsitinib + Pictilisib; first compound 0.1 µM) | relative viability (Linsitinib + Pictilisib; first compound 0.3162 µM) | relative viability (Linsitinib + Pictilisib; first compound 1 µM) | relative viability (Ispinesib + Navitoclax; first compound 0.001 µM) | relative viability (Ispinesib + Navitoclax; first compound 0.003162 µM) | relative viability (Ispinesib + Navitoclax; first compound 0.01 µM) | relative viability (Ispinesib + Navitoclax; first compound 0.03162 µM) | relative viability (Ispinesib + Navitoclax; first compound 0.1 µM) | relative viability (Ispinesib + Pemetrexed; first compound 0.001 µM) | relative viability (Ispinesib + Pemetrexed; first compound 0.003162 µM) | relative viability (Ispinesib + Pemetrexed; first compound 0.01 µM) | relative viability (Ispinesib + Pemetrexed; first compound 0.03162 µM) | relative viability (Ispinesib + Pemetrexed; first compound 0.1 µM)
NCI-H23 | 0.202 | 0.254 | 0.274 | 0.184 | 0.157 | 0.445 | 0.412 | 0.521 | 0.184 | 0.395 | 0.803 | 0.783 | 1.04 | 0.794 | 0.472 | 0.68 | 0.785 | 0.726 | 0.522 | 0.207
NCI-H322M | 0.561 | 0.654 | 0.464 | 0.494 | 0.484 | 0.496 | 0.502 | 0.506 | 0.503 | 0.433 | 1.2 | 1.13 | 1.15 | 1.14 | 1.15 | 0.665 | 0.616 | 0.585 | 0.525 | 0.425
NCI-H441 | 1.41 | 1.22 | 1.44 | 0.64 | 0.309 | 0.51 | 0.683 | 0.498 | 0.413 | 0.412 | 0.764 | 0.477 | 0.587 | 0.238 | 0.218 | 0.245 | 0.286 | 0.299 | 0.2 | 0.171
NCI-H460 | 0.711 | 0.757 | 1.01 | 0.632 | 0.0769 | 0.308 | 0.36 | 0.278 | 0.494 | 0.225 | 1.43 | 1.33 | – | 0.785 | 0.0262 | 0.0593 | 0.0626 | 0.0626 | 0.0523 | 0.0519
NCI-H596 | 1.2 | 0.683 | 1.19 | 1.15 | 0.423 | 0.248 | 0.393 | 0.382 | 0.343 | 0.317 | 0.865 | 0.9 | 1.07 | 1.05 | 0.458 | 0.502 | 0.51 | 0.578 | 0.52 | 0.304
NCI-H647 | 0.662 | 0.564 | 0.451 | 0.185 | 0.172 | 0.415 | 0.42 | 0.452 | – | 0.347 | 1.22 | 0.978 | 1.41 | 0.461 | 0.0986 | 0.165 | 0.161 | 0.124 | 0.118 | 0.0916
NCI-H838 | 1.01 | 0.804 | 1.03 | 0.941 | 0.714 | 0.42 | 0.446 | 0.374 | 0.217 | 0.306 | 1.33 | 1.23 | 1.37 | 0.994 | 0.25 | 0.255 | 0.248 | 0.248 | 0.252 | 0.148
NCI-H1355 | 0.783 | 0.847 | 0.805 | 0.448 | 0.284 | 0.433 | 0.437 | 0.343 | 0.228 | 0.359 | 0.996 | 0.878 | 0.927 | 1.08 | 0.688 | 1.13 | 1.09 | 1.16 | 0.809 | 0.259
